These results are taken from ChEMBL document CHEMBL4673363, “Highly potent, broadly active antifungal agents for the treatment of invasive fungal infections” (Bioorg Med Chem Lett, 2021).

One data set concerns Fusarium solani. The data set can be described thus: Antifungal activity against Fusarium solani ATCC 58877. Format: functional.
The next data set relates to Aspergillus fumigatus. The data set can be described thus: Antifungal activity against Aspergillus fumigatus ATCC 3626. The format is functional.
Another data set has as its target CYP2C19 (Homo sapiens, UniProt P33261). The data set can be described thus: Inhibition of CYP2C19 in human liver microsomes at 10 uM using S-mephenytoin as substrate measured for 10 to 30 mins in presence of NADPH by LC-MS/MS analysis relative to control. The settings on record: probe S-mephenytoin, time 10-30 min. Format: ADME. (Liver microsomes are vesicles of endoplasmic reticulum, rich in cytochrome P450 enzymes.)

Data set [1] in a line: Cytotoxicity against human HepG2 cells assessed as reduction in metabolic activity measured after 24 hrs. The format is ADME, cell-based.
Data set [2] is described as follows: Antifungal activity against Fusarium falciforme ATCC 3636. The format is functional.
For the next data set, the system named is Candida albicans. Put plainly: Antifungal activity against Candida albicans clinical isolate. The format is functional.
Data set [3] is described as follows: Aqueous solubility of compound at pH 7.4. Format: physicochemical.
Data set [4] in a line: Metabolic stability in mouse liver microsomes assessed as half life measured up to 60 mins in presence of NADPH by LC-MS/MS analysis. The format is ADME, Microsome.
A short description of data set [5]: Selectivity index, ratio of CC50 for human HepG2 cells to MIC for candida albicans. Format: toxicity. The settings on record: read-out: Selectivity Index.
The next data set addresses hERG (KCNH2) (Homo sapiens, UniProt Q12809). The data set can be described thus: Inhibition of human ERG at 10 uM by Qpatch method relative to control. Background: Patch clamp records ionic current or voltage across a cell membrane.
The nature of data set [6]: Selectivity index, ratio of CC50 for mouse 3T3 cells to MIC for candida albicans. The format is toxicity. The note with it: read-out: Selectivity Index.
A short description of data set [7]: Antifungal activity against Mucor ramosissimus ATCC 90286. The format is functional.
Data set [8] can be described thus: Solubility in 10% 2-hydroxypropyl-B-cyclodextrin. The format is physicochemical.
A further data set concerns Aspergillus flavus. Put plainly: Antifungal activity against Aspergillus flavus ATCC 3631. The format is functional.
A short description of data set [9]: Cytotoxicity against mouse 3T3 cells assessed as reduction in metabolic activity measured after 24 hrs. Format: ADME, cell-based.
Another data set has as its system Mucor circinelloides. Put plainly: Antifungal activity against Mucor circinelloides ATCC 26579. The format is functional.
The subject of the next data set is CYP3A. Put plainly: Inhibition of CYP3A in human liver microsomes at 10 uM using testosterone as substrate measured for 10 to 30 mins in presence of NADPH by LC-MS/MS analysis relative to control. The format is ADME. The settings on record: probe testosterone, time 10-30 min.
Data set [10] in a line: Protein binding in mouse plasma at 1 uM measured after 4 hrs by LC-MS/MS based rapid equilibrium dialysis method. The format is ADME, cell-free. The note with it: read-out: PPB (converted). Background: Equilibrium dialysis compares concentrations on both sides of a semipermeable membrane.
In a further data set the target is T1, CYP1A2 (Homo sapiens, UniProt P05177).
T1 sequence (P05177 whole entry): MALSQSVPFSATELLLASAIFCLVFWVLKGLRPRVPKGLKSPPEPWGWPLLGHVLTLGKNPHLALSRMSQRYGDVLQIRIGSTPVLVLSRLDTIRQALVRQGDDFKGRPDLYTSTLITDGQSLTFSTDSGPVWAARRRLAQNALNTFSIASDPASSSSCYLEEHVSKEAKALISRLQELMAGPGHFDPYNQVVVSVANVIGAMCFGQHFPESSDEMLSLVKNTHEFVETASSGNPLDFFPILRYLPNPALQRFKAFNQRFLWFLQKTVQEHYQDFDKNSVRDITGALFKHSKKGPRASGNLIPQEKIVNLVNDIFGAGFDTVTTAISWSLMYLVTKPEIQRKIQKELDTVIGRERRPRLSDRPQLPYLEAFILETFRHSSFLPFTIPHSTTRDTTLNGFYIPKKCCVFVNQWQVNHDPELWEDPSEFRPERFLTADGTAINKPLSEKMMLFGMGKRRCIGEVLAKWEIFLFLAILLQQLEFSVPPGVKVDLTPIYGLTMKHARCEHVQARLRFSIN
The data set can be described thus: Inhibition of CYP1A2 in human liver microsomes at 10 uM using phenacetin as substrate measured for 10 to 30 mins in presence of NADPH by LC-MS/MS analysis relative to control. Format: ADME. The note with it: probe phenacetin, time 10-30 min.

In brackets after ≈: the same amount, converted by molar mass.

Sequence of hERG (KCNH2) (Q12809 whole entry): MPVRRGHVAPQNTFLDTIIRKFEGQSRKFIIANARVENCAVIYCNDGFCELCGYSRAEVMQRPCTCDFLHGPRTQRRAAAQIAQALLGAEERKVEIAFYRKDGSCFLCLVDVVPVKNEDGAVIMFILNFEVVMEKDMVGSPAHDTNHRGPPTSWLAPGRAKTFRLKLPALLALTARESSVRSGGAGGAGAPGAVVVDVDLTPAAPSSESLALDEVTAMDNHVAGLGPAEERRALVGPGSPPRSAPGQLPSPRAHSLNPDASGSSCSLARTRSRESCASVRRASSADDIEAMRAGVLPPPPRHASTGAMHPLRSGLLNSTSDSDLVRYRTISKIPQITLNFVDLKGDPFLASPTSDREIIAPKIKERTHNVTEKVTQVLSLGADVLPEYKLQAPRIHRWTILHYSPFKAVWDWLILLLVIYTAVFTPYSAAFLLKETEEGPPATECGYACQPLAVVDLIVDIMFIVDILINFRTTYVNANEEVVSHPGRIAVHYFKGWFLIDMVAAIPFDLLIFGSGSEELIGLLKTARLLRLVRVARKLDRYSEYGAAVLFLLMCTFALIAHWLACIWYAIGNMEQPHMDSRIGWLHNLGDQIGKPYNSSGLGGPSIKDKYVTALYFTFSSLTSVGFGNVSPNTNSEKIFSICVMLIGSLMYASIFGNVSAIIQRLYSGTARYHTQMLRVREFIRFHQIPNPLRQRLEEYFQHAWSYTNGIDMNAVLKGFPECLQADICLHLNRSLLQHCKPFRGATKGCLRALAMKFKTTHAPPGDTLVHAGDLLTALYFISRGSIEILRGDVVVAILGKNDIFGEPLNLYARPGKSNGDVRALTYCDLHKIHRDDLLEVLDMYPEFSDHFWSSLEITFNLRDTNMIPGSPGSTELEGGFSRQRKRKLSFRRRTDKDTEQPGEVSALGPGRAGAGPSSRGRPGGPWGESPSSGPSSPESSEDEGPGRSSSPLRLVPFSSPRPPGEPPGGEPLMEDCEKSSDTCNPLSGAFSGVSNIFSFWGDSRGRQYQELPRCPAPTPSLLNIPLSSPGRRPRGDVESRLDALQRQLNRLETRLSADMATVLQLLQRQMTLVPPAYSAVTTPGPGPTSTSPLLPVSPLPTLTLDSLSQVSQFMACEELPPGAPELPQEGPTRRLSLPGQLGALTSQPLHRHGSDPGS
Sequence of CYP2C19 (P33261 whole entry): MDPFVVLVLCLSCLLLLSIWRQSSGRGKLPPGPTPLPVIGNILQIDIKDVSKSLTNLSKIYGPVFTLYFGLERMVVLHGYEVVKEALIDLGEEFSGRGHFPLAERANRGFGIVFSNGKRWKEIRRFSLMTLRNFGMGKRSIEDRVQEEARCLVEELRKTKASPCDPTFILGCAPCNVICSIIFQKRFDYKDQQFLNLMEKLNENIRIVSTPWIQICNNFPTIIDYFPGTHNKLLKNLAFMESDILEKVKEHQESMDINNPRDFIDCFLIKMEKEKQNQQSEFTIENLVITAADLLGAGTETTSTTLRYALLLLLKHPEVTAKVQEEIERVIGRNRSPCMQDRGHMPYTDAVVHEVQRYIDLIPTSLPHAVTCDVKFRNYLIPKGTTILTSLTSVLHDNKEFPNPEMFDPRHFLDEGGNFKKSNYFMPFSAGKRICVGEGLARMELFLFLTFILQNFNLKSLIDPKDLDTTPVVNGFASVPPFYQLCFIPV

Turning to `CC(C)n1c(-c2ccc(C3=CCN(C(=N)N)CC3)cc2)nnc1-c1ccc(C2=CCN(C(=N)N)CC2)cc1`, the MIC (in general, the lowest concentration that inhibits growth of the organism) in the data set with Fusarium solani was less than 0.1 µg/mL; in the data set with Aspergillus fumigatus, less than 0.1 µg/mL; in data set [2], less than 0.1 µg/mL; in [7], 0.78 µg/mL (≈ 1.53 µM); in the data set on Aspergillus flavus it was less than 0.1 µg/mL; with Mucor circinelloides, 0.2 µg/mL (≈ 0.392 µM). For the same molecule, the inhibition (usually the drop in the measured response relative to a control, in per cent) at 10 µM stood at 10.3% at CYP2C19, 21.6% at hERG (KCNH2), 0% in the data set on CYP3A and 0% on CYP1A2. In addition, the values for the CC50 at 24 h in data set [1] and in data set [9] were 751 µM and 297 µM, respectively. Moreover, in the data set on Candida albicans, the MIC50 – broadly, an inhibitory concentration at the 50% level, which refers to growth in some studies and to a panel of isolates in others – was found to be 0.1 µg/mL (≈ 0.196 µM). Besides, the solubility (in general, the dissolved amount per volume that the medium holds) in data set [3] is 27 µg/mL (≈ 53 µM); in data set [8], not above 5000 µg/mL. Moreover, the half-life (usually the time in which the quantity being followed falls by half) in [4] was more than 1 h. Moreover, the selectivity ratio in data set [5] and in [6] was more than 1000 in each case. Also, the fraction unbound at 4 h, 1 µM in data set [10] was 0.027.
